Test [1] deals with T1, human GLP-1 receptor (hGLP-1R) (Homo sapiens, UniProt P43220).
T1 construct: expressed in transfected cells; crude membranes
Briefly: [125I]-GLP-1 binding, SPA with membranes of HEK293 cells expressing hGLP-1R. As to conditions: human GLP-1R; geometric mean (SEM, n); read-out: Binding Affinity Ki, nM (SEM, n) hGLP-1R.

Test [2] has as its target T2, human GIP receptor (hGIPR) (Homo sapiens, UniProt P48546).
T2 construct: expressed in transfected cells; crude membranes
T2 sequence (P48546 22-466): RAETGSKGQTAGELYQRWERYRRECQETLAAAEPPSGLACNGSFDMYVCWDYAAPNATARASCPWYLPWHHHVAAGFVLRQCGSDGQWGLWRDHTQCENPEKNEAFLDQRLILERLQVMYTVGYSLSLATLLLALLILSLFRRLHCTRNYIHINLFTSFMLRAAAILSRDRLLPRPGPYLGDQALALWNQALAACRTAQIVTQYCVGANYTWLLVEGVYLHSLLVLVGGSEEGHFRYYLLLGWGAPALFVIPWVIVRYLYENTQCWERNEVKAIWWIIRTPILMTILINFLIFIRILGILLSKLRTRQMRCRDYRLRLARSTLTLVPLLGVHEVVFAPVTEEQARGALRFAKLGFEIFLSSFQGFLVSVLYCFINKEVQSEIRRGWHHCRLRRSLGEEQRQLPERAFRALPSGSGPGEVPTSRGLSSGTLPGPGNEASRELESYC
Description: [125I]-GIP binding, SPA with membranes of CHO cells expressing hGIPR. As to conditions: human GIPR; geometric mean (SEM, n); read-out: Binding Affinity Ki, nM (SEM, n) hGIPR.

The target of the next test is T3, hGIPR (Homo sapiens, UniProt P48546).
T3 construct: expressed in transfected cells
T3 sequence (P48546 22-466): T2 sequence (P48546 22-466)
Briefly: Functional cAMP formation (HTRF) in HEK-293 clonal cells expressing hGIPR, 0.1% bovine casein, without or with 1.0% human serum albumin. In kind it is cell-based. Conditions: 37° C.; for Emax: HEK293, cAMP, percent of maximal response to GIP(1-42)NH2, read-out: hGIPR Emax, % ± SEM; for EC50: cAMP, 0.1% bovine casein (no human serum albumin), geometric mean, read-out: hGIPR EC50, nM (SEM, n). In a few lines: (§1)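 Readings of the HTRF 665/620 nm ratio, which falls as cAMP rises, were converted to nM cAMP using a standard curve after 30 min peptide exposure at 37° C.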
(In general: Cyclic AMP is a second messenger, typically raised through Gs and lowered through Gi signalling.)

The target of the next test is T4, hGCGR (Homo sapiens, UniProt P47871).
T4 construct: expressed in transfected cells
T4 sequence (P47871 26-477): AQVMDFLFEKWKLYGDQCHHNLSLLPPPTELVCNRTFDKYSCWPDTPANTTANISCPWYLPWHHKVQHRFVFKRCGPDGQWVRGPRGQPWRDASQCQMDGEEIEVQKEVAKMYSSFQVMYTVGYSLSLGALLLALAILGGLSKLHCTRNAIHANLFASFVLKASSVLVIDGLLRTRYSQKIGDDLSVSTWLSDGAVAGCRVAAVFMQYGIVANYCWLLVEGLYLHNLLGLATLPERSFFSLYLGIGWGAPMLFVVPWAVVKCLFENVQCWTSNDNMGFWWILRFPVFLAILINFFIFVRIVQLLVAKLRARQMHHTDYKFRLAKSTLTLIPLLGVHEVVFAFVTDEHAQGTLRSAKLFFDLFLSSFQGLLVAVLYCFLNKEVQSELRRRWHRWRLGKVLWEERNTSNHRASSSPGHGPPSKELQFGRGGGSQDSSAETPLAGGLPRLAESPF
Description: Functional cAMP formation (HTRF) in HEK-293 clonal cells expressing hGCGR, 0.1% bovine casein, without or with 1.0% human serum albumin. In kind it is cell-based. Conditions: cAMP, 37° C., read-out: hGCGR EC50, nM (SEM, n). In a few lines:
as §1

A further test deals with hGLP-1R (Homo sapiens, UniProt P43220). Briefly: Functional cAMP formation (HTRF) in HEK-293 clonal cells expressing hGLP-1R, 0.1% bovine casein, without or with 1.0% human serum albumin. The class given is cell-based. More on the design: expressed in transfected cells. As to conditions: 37° C.; for Emax: HEK293, cAMP, percent of maximal response to GLP-1(7-36)NH2, read-out: hGLP-1R Emax, % ± SEM; for EC50: cAMP, read-out: hGLP-1R EC50, nM (SEM, n). In a few lines: as §1
hGLP-1R, sequence (P43220 24-463): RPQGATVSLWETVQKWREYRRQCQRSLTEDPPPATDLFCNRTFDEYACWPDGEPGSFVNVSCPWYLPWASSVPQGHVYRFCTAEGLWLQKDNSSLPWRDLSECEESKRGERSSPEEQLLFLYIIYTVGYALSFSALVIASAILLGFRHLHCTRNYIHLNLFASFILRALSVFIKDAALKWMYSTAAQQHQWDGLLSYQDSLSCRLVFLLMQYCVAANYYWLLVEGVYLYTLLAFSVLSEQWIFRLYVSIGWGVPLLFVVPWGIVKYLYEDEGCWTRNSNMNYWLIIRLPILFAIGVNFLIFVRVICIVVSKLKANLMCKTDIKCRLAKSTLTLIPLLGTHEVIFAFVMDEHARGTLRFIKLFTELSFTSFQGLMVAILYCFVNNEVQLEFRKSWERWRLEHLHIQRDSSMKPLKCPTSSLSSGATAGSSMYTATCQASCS

Setting [3] is: 0.1% bovine casein and 1.0% human serum albumin.
The mark [4] stands for this setting: 0.1% bovine casein, arithmetic mean.
Setting [5] is: 0.1% bovine casein (no human serum albumin), geometric mean.
[6] abbreviates: 0.1% bovine casein and 1.0% human serum albumin, geometric mean (SEM, n).

Like-named read-outs stand apart in the source and are kept apart here.

T1 sequence (P43220 24-463): as above

On to `CC[C@H](C)[C@H](NC(=O)[C@H](CC(C)C)NC(=O)[C@](C)(Cc1ccc(O)cc1)NC(=O)[C@H](CCCCNC(=O)COCCOCCNC(=O)COCCOCCNC(=O)CC[C@H](NC(=O)CCCCCCCCCCCCC(=O)O)C(=O)O)NC(=O)[C@@H](NC(=O)[C@H](Cc1ccccc1)NC(=O)[C@H](CCCN)NC(=O)C(C)(C)NC(=O)[C@H](CCC(N)=O)NC(=O)[C@H](C)NC(=O)[C@H](CCC(N)=O)NC(=O)[C@H](CCCN)NC(=O)[C@H](CC(=O)O)NC(=O)[C@H](CC(C)C)NC(=O)[C@](C)(CC(C)C)NC(=O)[C@@H](NC(=O)[C@H](CO)NC(=O)[C@H](CCc1ccc(O)cc1)NC(=O)[C@H](CC(=O)O)NC(=O)[C@H](CO)NC(=O)[C@@H](NC(=O)[C@](C)(Cc1ccccc1F)NC(=O)[C@@H](NC(=O)CNC(=O)[C@H](CCC(=O)O)NC(=O)C(C)(C)NC(=O)[C@@H](N)Cc1ccc(O)cc1)[C@@H](C)O)[C@@H](C)O)[C@@H](C)CC)[C@@H](C)CC)C(=O)N[C@@H](CCCCNC(=O)COCCOCCNC(=O)COCCOCCNC(=O)CC[C@H](NC(=O)CCCCCCCCCCCCC(=O)O)C(=O)O)C(=O)NCC(=O)NCC(=O)N1CCC[C@H]1C(=O)N[C@@H](CO)C(=O)N[C@@H](CO)C(=O)NCC(=O)N[C@@H](C)C(=O)N1CCC[C@H]1C(=O)N1CCC[C@H]1C(=O)N1CCC[C@H]1C(=O)N[C@@H](CO)C(N)=O` [Example 491], for which the values for the inhibition constant Ki in test [1] and in test [2] were 0.182 nM and 0.0301 nM, respectively. Further, the Emax (commonly the maximal effect, on the per cent scale that the assay sets) stood at 87.5% on hGIPR (setting [3]), 100% on hGIPR (setting [4]), 105% on hGLP-1R (setting [3]) and 119% on hGLP-1R (setting [4]). In addition, the EC50 (commonly the concentration giving half of the maximal effect) is 0.0148 nM at hGIPR, above 9950 nM on hGCGR (setting [5]), above 9950 nM at hGCGR (setting [6]) and 0.148 nM at hGLP-1R (setting [5]).

With `CC[C@H](C)[C@H](NC(=O)[C@H](CC(C)C)NC(=O)[C@](C)(Cc1ccc(O)cc1)NC(=O)[C@H](CCCCNC(=O)COCCOCCNC(=O)CC[C@H](NC(=O)CC[C@H](NC(=O)CC[C@H](NC(=O)CCCCCCCCCCCCC(=O)O)C(=O)O)C(=O)O)C(=O)O)NC(=O)[C@@H](NC(=O)[C@H](Cc1ccccc1)NC(=O)[C@H](CCCN)NC(=O)C(C)(C)NC(=O)[C@H](CCC(N)=O)NC(=O)[C@H](C)NC(=O)[C@H](CCC(N)=O)NC(=O)[C@H](CCCN)NC(=O)[C@H](CC(=O)O)NC(=O)[C@H](CC(C)C)NC(=O)[C@](C)(CC(C)C)NC(=O)[C@@H](NC(=O)C(C)(C)NC(=O)[C@H](Cc1ccncc1)NC(=O)[C@H](CC(=O)O)NC(=O)[C@H](CO)NC(=O)[C@@H](NC(=O)[C@](C)(Cc1ccccc1F)NC(=O)[C@@H](NC(=O)CNC(=O)[C@H](CCC(=O)O)NC(=O)C(C)(C)NC(=O)[C@@H](N)Cc1ccc(O)cc1)[C@@H](C)O)[C@@H](C)O)[C@@H](C)CC)[C@@H](C)CC)C(=O)N[C@@H](CCCCNC(=O)COCCOCCNC(=O)CC[C@H](NC(=O)CC[C@H](NC(=O)CC[C@H](NC(=O)CCCCCCCCCCCCC(=O)O)C(=O)O)C(=O)O)C(=O)O)C(=O)NCC(=O)NCC(=O)N1CCC[C@H]1C(=O)N[C@@H](CO)C(=O)N[C@@H](CO)C(=O)NCC(=O)N[C@@H](C)C(=O)N1CCC[C@H]1C(=O)N1CCC[C@H]1C(=O)N1CCC[C@H]1C(=O)N[C@@H](CO)C(N)=O` [Example 486], the Ki (usually the equilibrium dissociation constant of an inhibitor or competing ligand from its target) came out at 0.299 nM in test [1] and 0.046 nM in test [2]. The figures for the Emax at hGIPR (setting [3]) and on hGIPR (setting [4]) were 88.2% and 94.1%, respectively. Also, the concentration giving a half-maximal response (EC50) on hGIPR is 0.0143 nM; at hGCGR (setting [5]) it was above 9950 nM; on hGCGR (setting [6]), above 9950 nM; on hGLP-1R (setting [5]) it was 0.166 nM.

As to `CC[C@H](C)[C@H](NC(=O)[C@H](CC(C)C)NC(=O)[C@](C)(Cc1ccc(O)cc1)NC(=O)[C@H](CCCCNC(=O)COCCOCCNC(=O)COCCOCCNC(=O)CC[C@H](NC(=O)CC[C@H](NC(=O)CCCCCCCCCCCCC(=O)O)C(=O)O)C(=O)O)NC(=O)[C@@H](NC(=O)[C@H](Cc1ccccc1)NC(=O)[C@H](CCCN)NC(=O)C(C)(C)NC(=O)[C@H](CCC(N)=O)NC(=O)[C@H](C)NC(=O)[C@H](CCC(N)=O)NC(=O)[C@H](CCCN)NC(=O)[C@H](CC(=O)O)NC(=O)[C@H](CC(C)C)NC(=O)[C@](C)(CC(C)C)NC(=O)[C@@H](NC(=O)C(C)(C)NC(=O)[C@H](Cc1ccncc1)NC(=O)[C@H](CC(=O)O)NC(=O)[C@H](CO)NC(=O)[C@@H](NC(=O)[C@](C)(Cc1ccccc1F)NC(=O)[C@@H](NC(=O)CNC(=O)[C@H](CCC(=O)O)NC(=O)C(C)(C)NC(=O)[C@@H](N)Cc1ccc(O)cc1)[C@@H](C)O)[C@@H](C)O)[C@@H](C)CC)[C@@H](C)CC)C(=O)N[C@@H](CCCCNC(=O)COCCOCCNC(=O)COCCOCCNC(=O)CC[C@H](NC(=O)CC[C@H](NC(=O)CCCCCCCCCCCCC(=O)O)C(=O)O)C(=O)O)C(=O)NCC(=O)NCC(=O)N1CCC[C@H]1C(=O)N[C@@H](CO)C(=O)N[C@@H](CO)C(=O)NCC(=O)N[C@@H](C)C(=O)N1CCC[C@H]1C(=O)N1CCC[C@H]1C(=O)N1CCC[C@H]1C(=O)N[C@@H](CO)C(N)=O` [Example 474], the results for the inhibition constant (Ki) in test [1] and in test [2] were 0.343 nM and 0.0427 nM, respectively. Besides, the maximal response (Emax) at hGIPR (setting [3]) stood at 85.6%; at hGLP-1R (setting [4]), 113%. For the same molecule, the EC50 was 0.0106 nM at hGIPR; above 9950 nM at hGCGR (setting [5]); above 9950 nM on hGCGR (setting [6]); 0.123 nM at hGLP-1R (setting [5]); 1.1 nM at hGLP-1R (setting [6]).

On to `CCCCCCCCCCCC(=O)N[C@@H](CCC(=O)NCCOCCOCC(=O)NCCOCCOCC(=O)NCCOCCOCC(=O)NCCCC[C@H](NC(=O)[C@H](CCCN)NC(=O)[C@H](CC(=O)O)NC(=O)[C@H](CC(C)C)NC(=O)[C@](C)(CC(C)C)NC(=O)[C@@H](NC(=O)C(C)(C)NC(=O)[C@H](Cc1ccncc1)NC(=O)[C@H](CC(=O)O)NC(=O)[C@H](CO)NC(=O)[C@@H](NC(=O)[C@](C)(Cc1ccccc1F)NC(=O)[C@@H](NC(=O)CNC(=O)[C@H](CCC(=O)O)NC(=O)C(C)(C)NC(=O)[C@@H](N)Cc1ccc(O)cc1)[C@@H](C)O)[C@@H](C)O)[C@@H](C)CC)C(=O)N[C@@H](C)C(=O)N[C@@H](CCC(N)=O)C(=O)NC(C)(C)C(=O)N[C@@H](CCCCNC(=O)COCCOCCNC(=O)COCCOCCNC(=O)COCCOCCNC(=O)CC[C@H](NC(=O)CCCCCCCCCCC)C(=O)O)C(=O)N[C@@H](Cc1ccccc1)C(=O)N[C@H](C(=O)N[C@H](CCC(=O)O)C(=O)N[C@@](C)(Cc1ccc(O)cc1)C(=O)N[C@@H](CC(C)C)C(=O)N[C@H](C(=O)N[C@@H](CCC(=O)O)C(=O)NCC(=O)NCC(=O)N1CCC[C@H]1C(=O)N[C@@H](CO)C(=O)N[C@@H](CO)C(=O)NCC(=O)N[C@@H](C)C(=O)N1CCC[C@H]1C(=O)N1CCC[C@H]1C(=O)N1CCC[C@H]1C(=O)N[C@@H](CO)C(N)=O)[C@@H](C)CC)[C@@H](C)CC)C(=O)O` [Example 422], for which the values for the Ki in test [1] and in test [2] were 0.194 nM and 0.0218 nM, respectively. In addition, on hGIPR (setting [3]), the Emax is 97.5%. The EC50 is 0.00655 nM at hGIPR, above 9950 nM at hGCGR (setting [5]), above 9950 nM at hGCGR (setting [6]) and 0.0729 nM on hGLP-1R (setting [5]).
